Converted amounts (≈) assume the structure as drawn.
System: Staphylococcus aureus
Experiment: Antibacterial activity against methicillin-resistant Staphylococcus aureus
Format: functional

`CC(C)=CCc1c(O)cc2oc3c(O)c4c(cc3c(=O)c2c1O)C=CC(C)(C)O4` [LASTIXANTHONE D] was tested, and the MIC was 2 µg/mL (≈ 5.07 µM).
`CC1(C)C=Cc2c(cc(O)c3c(=O)c4cc(O)ccc4oc23)O1` [NIGROLINEAXANTHONE F] showed an MIC of 2 µg/mL (≈ 6.45 µM).
`CC(C)=CCc1c(O)cc2oc3c(O)ccc(CCC(C)(C)O)c3c(=O)c2c1O` [NIGROLINEAXANTHONE N] showed an MIC of 4 µg/mL (≈ 10 µM).

Reference: ChEMBL document CHEMBL1141774, “Benzopyran, biphenyl, and tetraoxygenated xanthone derivatives from the twigs of Garcinia nigrolineata” (2005)
